Experimental data reported in patent US7271158B2, “Treatment of rumen acidosis with α-amylase inhibitors” (Pfizer Inc., priority 2000, dated 2007).

Experiments:
[1] = system: rumen fluid fermentation (RUSITEC chronic acidosis model); test: RUSITEC rumen simulation, chronic acidosis model: Example 8 and acarbose; format: cell-based, cow
Protocol: RUSITEC Result using Example 8 and Acarbose
Daily maintenance procedures as previously described for Acarbose.
Rumen fluid donor cow—Fed GH313Pellets plus barley straw.
Daily Feed—30 g GH313 pellets plus 2.5 g chopped barley straw.
Acarbose: 1 tablet added to each bag to give 100 mg/vessel/d
Example 8: Eight×57 mg pre-weighed samples stored in fridge in […]. On the day before the feed bags were to be placed in RUSITEC, a 57 mg sample was dissolved in 2.28 ml buffer (25 mg/ml). 0.21 ml of this solution was added to 1.9 ml buffer to give a 2.5 mg/ml solution. 1 ml of each solution was added to a prepared feed bag to give 25 and 2.5 mg/vessel/d. and dried overnight at room temperature.

[2] = molecular target: rumen fluid supernatant amylases; test: Rumen bacterial amylase assay, protocol 2 (amylose azure); conditions: read-out: Average IC50, rumen fluid amylase screen
[3] = system: acute acidosis after carbohydrate challenge in cannulated cattle; test: Acute acidosis model (carbohydrate challenge); format: in vivo, Holstein dried off cows and heifers
Excerpt: Acute Acidosis Model: Assessment of Acarbose [table] Procedures: Ten Holstein dried off cows and heifers (initial weight 740±27 (SE) kg, range=606–870 kg) were group-housed during the pre-treatment period and individually housed during the experimental period. Animals were moved to a head-gate during sample collection, treatment and first challenge. Subsequently, they were sampled and dosed in their individual pens. Animals were offered approximately 5 kg alfalfa hay, 16 kg silage, 6 kg concentrate and 0.5 kg straw daily in a total mixed ration offered in two feedings (60:40 concentrate:roughage diet ). They were bedded on straw only during the pre-treatment period. Water was provided ad libitum. Animals were adapted to the lactating ration for at least 10 days before treatments were administered. From a group of 6 dry cows and 5 non-lactating heifers, ten were selected based on previous exposure to challenge and general health. Animals were paired by body weight and were randomly assigned to control and acarbose treatment groups within pair, ensuring similar distribution of heifers and cows. On days 0–6 of treatment, animals received 1.07 mg acarbose/kg dissolved in ˜200 mL water through the rumen cannula just before AM (07:30) and PM (16:00) feedings. Treatment 1 animals received an equivalent amount of water only. On days 7 and 8, each animal was administered a challenge through the cannula. When pH reached ˜4.5 and there was evidence of L-lactate production, acute acidosis was considered to be induced. When an animal experienced acute acidosis by these criteria, rumen contents were removed and the rumen inoculated with rumen contents from a donor animal. Animals were weighed on days—1 and 5 for calculation of acarbose dosing and challenge amounts. To measure rumen fluid pH animals were fitted with a harness to hold an automatic pH data recording system. The rumen pH was recorded every 10 min during the days of challenge until an animal experienced acute acidosis. Rumen fluid samples were taken (˜50 mL) from the rumen cannula through a filtered sampling tube. […] The pH was measured immediately. […] In some cases the sample was filtered through gauze before pH measurement and acid treatment. This mixture was centrifuged for 10 min at 12000 g. One aliquot of the supernatant was removed for immediate lactate analysis, one frozen for subsequent lactate analysis using Sigma kit 826. A third aliquot was transferred to an auto-sampler vial for subsequent VFA analysis. An initial determination of L-lactate was made during the study to establish acidotic status using Sigma kit 735. Subsequently D and L-lactate were re-measured for statistical analysis as described below. VFA's were measured on a Hewlett Packard 6890 series gas chromatograph fitted with an auto-sampler and flame ionisation detector. The acids were resolved on a SGE Ltd. 25 metre BP21 column (0.33 mm O.D., 0.22 mm I.D. 0.25 um film thickness). Nitrogen was used as the carrier gas with a flow rate of 1.9 ml/min. The oven temperature was 165° C., and injection ports and detectors were held at 250° C. Concentrations were calculated by using crotonic acid as an internal standard, and the system was calibrated using a standard solution containing acetic, propionic, butyric, iso-valeric and n-valeric acids.

[4] = system: bacterial glucosidase activity from bovine rumen fluid cell suspension; test: Rumen fluid glucosidase assay; format: biochemical, bovine rumen bacteria; conditions: rumen fluid glucosidase screen, maltose substrate
Protocol: Rumen Fluid Glucosidase Assay Protocol This assay is used to determine IC50 values for inhibitors of bacterial glucosidase activity from bovine rumen fluid cell suspension (RFCS) using a colorimetric assay. The assay measures conversion of maltose into glucose. Rumen fluid cells are incubated with maltose in the presence of inhibitors, and the amount of glucose produced is assessed using a red colourimetric endpoint. The higher the level of inhibition the lower the glucose produced and the less red colour produced. The plates are read at 450 nm. Main reaction: • Maltose+glucosidase→glucose Glucose assay • Glucose+ATP→[…] and ADP (Hexokinase and Mg^2+) • […] and NADP→6-phosphogluconate (6-PG) and NADPH • NADPH+phenazine methosulfate ([…] (iodonitrotetrazolium chloride)→[…] is deep red coloured. […] The rumen fluid was collected into pre-warmed vacuum flasks. It was then filtered through a double layer of absorbent gauze (Absorbent gauze BP, GAUZ 4 from Robert Bailey plc, Stockport) to remove hay and feed particles. The liquid was centrifuged at a relative centrifugal force of 650 for 15 minutes to remove food particles and protozoa. The supernatant was decanted into fresh tubes and centrifuged at a relative centrifugal force of 23,300 for 60 minutes. The supernatant and the loose top layer of the pellet were discarded. The pellet was resuspended in PBS at 1:8 of original volume i.e. 50 ml of PBS for the pellet from 400 ml of rumen fluid, and frozen at -20° C. When required for use the cells were thawed by standing the tube in cold water, and then diluted to […] of cells/well (45 μl/ml). Test compounds or controls were dispensed into the 96-well assay plate at 2 μl/well, followed by 50 μl per well of 10 mM maltose and 50 μl/well of rumen fluid cell suspension. The plate was incubated at 37° C. for 1 hour. Sigma glucose detection kit […] was reconstituted by addition of 17 ml of Millipore water and 4 ml of colour reagent to each vial. 100 μl of this solution was added per well and the plate returned to the 37° C. incubator for 45 minutes. The plate was then read at 450 nm. Active compounds cause a reduction in the optical density readings when compared to the no-inhibitor control wells.

With CC1OC(OC2C(CO)OC(OC3C(CO)OC(O)C(O)C3O)C(O)C2O)C(O)C(O)C1NC1C=C(CO)C(O)C(O)C1O (stereo not shown) [Acarbose, acarbose] the “increase in mean daily pH” value ([1]; 0.2 mM) was 0.7 units, the “proportional increase in butyrate production” value ([1]; 100 mg per vessel per day, treatment period vs control period (no treatment: 1%)) was 113% and the “change in total VFA production” value ([1]; 100 mg per vessel per day, vs preceding control period (no treatment: −11%)) was −15%. For the same molecule, the IC50 [2] was 2390 nM, the “Group mean D-Lactate” value ([3]; 0 hours post second challenge) was 0.67 mM and the “Group mean L-Lactate” value ([3]; 0 hours post second challenge) was 0.35 mM. For the same molecule, the “Group mean Total-Lactate” value ([3]; 0 hours post second challenge) was 1.02 mM, the “acute acidosis following carbohydrate challenge” value ([3]; 1.07 mg/kg BW BID 7 days pre-challenge, via cannula) was “prevented acute acidosis” and the “Group mean D-Lactate” value ([3]; 3 hours post second challenge) was 3.63 mM. The “Group mean L-Lactate” value ([3]; 3 hours post second challenge) was 1.28 mM, the “Group mean Total-Lactate” value ([3]; 3 hours post second challenge) was 4.91 mM and the “Group mean D-Lactate” value ([3]; 5 hours post second challenge) was 10.91 mM. For the same molecule, the “Group mean L-Lactate” value ([3]; 5 hours post second challenge) was 3.08 mM, the “Group mean Total-Lactate” value ([3]; 5 hours post second challenge) was 13.99 mM and the “Group mean D-Lactate” value ([3]; 7 hours post second challenge) was 18.00 mM. For the same molecule, the “Group mean L-Lactate” value ([3]; 7 hours post second challenge) was 4.93 mM, the “Group mean Total-Lactate” value ([3]; 7 hours post second challenge) was 22.93 mM and the “rumen pH” value ([3]; after second carbohydrate challenge, all treated cattle, 1.07 mg/kg BW BID 7 days pre-challenge, via cannula) was “above 5.0”. The “lactate level in rumen fluid” value ([3]; after second challenge, all acarbose-treated animals (four of five controls >50 mM)) was “remained at zero”, the “L-lactate production in response to the load” value ([3]; twice a day treatment) was “blocked” and the “pH responses to a high carbohydrate load” value ([3]; twice a day treatment) was “reduced”. It also gave an IC50 [4] of 1080 nM.
